pKi: −log10 of the molar value.
Legend:
[1] = molecular target: Neuronal acetylcholine receptor subunit alpha-7 (Rattus norvegicus, UniProt Q05941); assay: Binding affinity towards alpha-7 neuronal nicotinic acetylcholine receptor (nAChRs) measured by using the inhibition of [3H]-MLA binding to whole brain membrane
[2] = molecular target: Neuronal acetylcholine receptor; alpha4/beta2 (Rattus norvegicus, UniProt P09483+P12390); assay: Binding affinity towards alpha4-beta2 measured by using the inhibition of [3H]NIC binding to rat striatal membrane; design: species or system Striatum
Sequence of Neuronal acetylcholine receptor; alpha4/beta2 (P09483 whole entry): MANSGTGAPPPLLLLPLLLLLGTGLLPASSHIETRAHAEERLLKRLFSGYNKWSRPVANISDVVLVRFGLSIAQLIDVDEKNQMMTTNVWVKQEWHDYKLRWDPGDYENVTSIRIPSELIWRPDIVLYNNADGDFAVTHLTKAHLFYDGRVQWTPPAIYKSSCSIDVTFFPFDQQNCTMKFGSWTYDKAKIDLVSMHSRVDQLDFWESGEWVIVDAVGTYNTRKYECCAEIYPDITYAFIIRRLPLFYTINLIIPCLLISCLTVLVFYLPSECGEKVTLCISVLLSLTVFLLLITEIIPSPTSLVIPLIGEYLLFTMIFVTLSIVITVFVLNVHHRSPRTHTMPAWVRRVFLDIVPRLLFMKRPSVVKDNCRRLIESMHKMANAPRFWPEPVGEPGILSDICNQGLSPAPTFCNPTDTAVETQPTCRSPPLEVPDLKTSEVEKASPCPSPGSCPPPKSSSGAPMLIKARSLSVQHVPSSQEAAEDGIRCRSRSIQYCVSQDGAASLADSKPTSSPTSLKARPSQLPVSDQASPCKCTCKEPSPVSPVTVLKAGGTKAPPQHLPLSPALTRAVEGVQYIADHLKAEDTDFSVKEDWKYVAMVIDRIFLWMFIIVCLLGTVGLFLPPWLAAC
Sequence of Neuronal acetylcholine receptor; alpha4/beta2 (P12390 whole entry): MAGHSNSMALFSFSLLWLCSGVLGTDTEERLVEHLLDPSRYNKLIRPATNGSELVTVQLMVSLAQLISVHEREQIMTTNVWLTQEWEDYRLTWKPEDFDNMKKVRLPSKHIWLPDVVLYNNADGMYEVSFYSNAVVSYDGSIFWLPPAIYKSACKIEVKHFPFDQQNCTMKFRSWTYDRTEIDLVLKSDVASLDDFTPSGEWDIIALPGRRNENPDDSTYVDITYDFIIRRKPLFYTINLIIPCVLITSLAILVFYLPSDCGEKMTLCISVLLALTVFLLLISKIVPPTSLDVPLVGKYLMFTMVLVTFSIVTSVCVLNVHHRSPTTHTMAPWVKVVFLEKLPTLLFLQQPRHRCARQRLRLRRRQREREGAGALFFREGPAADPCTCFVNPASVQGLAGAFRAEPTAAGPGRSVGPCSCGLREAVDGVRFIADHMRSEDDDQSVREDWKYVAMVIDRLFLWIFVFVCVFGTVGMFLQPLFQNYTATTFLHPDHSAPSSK

Sequence of Neuronal acetylcholine receptor subunit alpha-7 (Q05941 whole entry): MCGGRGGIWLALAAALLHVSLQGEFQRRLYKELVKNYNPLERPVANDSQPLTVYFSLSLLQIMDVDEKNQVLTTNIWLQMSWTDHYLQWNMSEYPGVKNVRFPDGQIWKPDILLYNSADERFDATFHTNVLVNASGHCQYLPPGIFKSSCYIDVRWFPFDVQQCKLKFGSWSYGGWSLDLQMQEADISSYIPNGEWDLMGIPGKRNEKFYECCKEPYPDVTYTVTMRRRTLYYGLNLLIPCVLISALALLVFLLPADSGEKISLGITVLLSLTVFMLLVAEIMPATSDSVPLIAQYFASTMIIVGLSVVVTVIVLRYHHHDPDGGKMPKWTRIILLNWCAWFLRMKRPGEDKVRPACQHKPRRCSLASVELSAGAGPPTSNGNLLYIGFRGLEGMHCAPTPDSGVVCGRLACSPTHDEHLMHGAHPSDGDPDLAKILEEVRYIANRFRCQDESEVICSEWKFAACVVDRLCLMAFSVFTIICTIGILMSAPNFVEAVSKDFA

| Structure (SMILES) | pKi [1] | pKi [2] |
| --- | --- | --- |
| CN1CCC[C@H]1CN1CCN(Cc2ccncc2)CC1 | < 4.00 | 4.41 |
| c1cc(CN2CCN(C[C@@H]3CCCN3)CC2)ccn1 | < 4.00 | 4.34 |
| CN1CCCCC1CN1CCN(Cc2ccncc2)CC1 (racemic) | < 4.00 | 4.38 |
| c1cc(CN2CCN(CC3CCCCN3)CC2)ccn1 (racemic) | < 4.00 | < 4.00 |
| O=C(C1CCCCN1)N1CCN(Cc2cccnc2)CC1 (racemic) [SCR01020] | < 4.00 | 4.26 |
| c1cncc([C@@H]2CCCN2)c1 [NORNICOTINE] | 5.92 |  |

Further lines, with some results ahead:

| pKi [1] | Structure (SMILES) | pKi [2] |
| --- | --- | --- |
| < 4.00 | CN1CCC[C@H]1CN1CCN(Cc2cccnc2)CC1 |  |
| < 4.00 | O=C([C@@H]1CCCN1)N1CCN(Cc2ccccn2)CC1 | < 4.00 |
| < 4.00 | c1cncc(CN2CCN(C[C@@H]3CCCN3)CC2)c1 | < 4.00 |
| < 4.00 | O=C(C1CCCCN1)N1CCN(Cc2ccncc2)CC1 (racemic) | 4.22 |
| < 4.00 | CN1CCCCC1CN1CCN(Cc2cccnc2)CC1 (racemic) |  |
| < 4.00 | O=C(C1CCCCN1)N1CCN(Cc2ccccn2)CC1 (racemic) | < 4.00 |
| < 4.00 | c1cncc(CN2CCN(CC3CCCCN3)CC2)c1 (racemic) | < 4.00 |

From ChEMBL document CHEMBL1136369, “N,N-disubstituted piperazines: synthesis and affinities at alpha4beta2(*) and alpha7(*) neuronal nicotinic acetylcholine receptors” (Bioorg Med Chem Lett, 2003)
